Several values for one entry are separate records, joined by “and”; a condition that tells them apart may be missing. Equal entries are not always repeated. Toxic doses and inconclusive results are not listed. Cut-off read from the data, not from the text of the source: active = T/C of 150% or more; inactive = T/C below 125%.
System: L1210 leukemia ip in BDF1 mice, survival T/C
Test: NCI In Vivo Anticancer Drug Screen. Data for tumor model L1210 Leukemia (intraperitoneal) in B6D2F1 (BDF1) mice
Conditions: endpoint: mean survival time, higher = longer survival
Procedure, shortened: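 Transplanted-tumor mice were given test agent; controls received vehicle only. Survival readings from the two groups were divided (treated over control).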

[1] = dose: 100.0 mg/kg/injection, schedule: Q01DX001 (ip), vehicle: saline
[2] = dose: 200.0 mg/kg/injection, schedule: Q01DX001 (ip), vehicle: saline
[3] = dose: 400.0 mg/kg/injection, schedule: Q01DX001 (ip), vehicle: saline
[4] = dose: 100.0 mg/kg/injection, schedule: Q04DX003 (ip), vehicle: saline with Tween-80
[5] = dose: 12.5 mg/kg/injection, schedule: Q01DX009 (ip), vehicle: saline
[6] = dose: 25.0 mg/kg/injection, schedule: Q01DX009 (ip), vehicle: saline
[7] = dose: 50.0 mg/kg/injection, schedule: Q01DX009 (ip), vehicle: saline
[8] = dose: 100.0 mg/kg/injection, schedule: Q04DX003 (ip), vehicle: saline
[9] = dose: 50.0 mg/kg/injection, schedule: Q01DX009 (ip), vehicle: Klucel (hydroxypropylcellulose) (HPC)
[10] = dose: 100.0 mg/kg/injection, schedule: Q01DX009 (ip), vehicle: Klucel (hydroxypropylcellulose) (HPC)
[11] = dose: 100.0 mg/kg/injection, schedule: Q04DX003 (ip), vehicle: Klucel (hydroxypropylcellulose) (HPC)
[12] = dose: 200.0 mg/kg/injection, schedule: Q04DX003 (ip), vehicle: Klucel (hydroxypropylcellulose) (HPC)
[13] = dose: 400.0 mg/kg/injection, schedule: Q04DX003 (ip), vehicle: Klucel (hydroxypropylcellulose) (HPC)
[14] = dose: 100.0 mg/kg/injection, schedule: Q01DX001 (ip), vehicle: other
[15] = dose: 200.0 mg/kg/injection, schedule: Q01DX001 (ip), vehicle: other
[16] = dose: 400.0 mg/kg/injection, schedule: Q01DX001 (ip), vehicle: other

Measured: T/C

O=C(/C=C/c1ccccc1)c1ccc(N=Cc2ccccc2)cc1
inactive: dose: 50.0 mg/kg/injection, schedule: Q01DX001 (ip), vehicle: saline 94 % of control | [1] 94 % of control | [2] 90 % of control | [3] 105 % of control

Cc1ccc(C(C)NC2=NCCO2)c(C)c1 (centres undefined)
inactive: [4] 105 % of control

N#[N+]c1ccc(Br)cc1-c1nc(N)nc(N)n1
inactive: [5] 92 % of control | [6] 101 % of control | dose: 25.0 mg/kg/injection, schedule: Q04DX003 (ip), vehicle: saline 113 % of control | [7] 100 % of control | dose: 50.0 mg/kg/injection, schedule: Q04DX003 (ip), vehicle: saline 98 % of control | [1] 104 % of control

O=C1NC2(c3ccccc3)CCCCC2O1 (centres undefined)
inactive: dose: 75.0 mg/kg/injection, schedule: Q01DX001 (ip), vehicle: acetone 98 % of control and 92 % of control | dose: 150.0 mg/kg/injection, schedule: Q01DX001 (ip), vehicle: acetone 102 % of control | dose: 300.0 mg/kg/injection, schedule: Q01DX001 (ip), vehicle: acetone 100 % of control and 89 % of control

CCOCC(OC)OC
inactive: dose: 100.0 mg/kg/injection, schedule: Q01DX009 (ip), vehicle: saline 95 % of control | [8] 93 % of control | dose: 200.0 mg/kg/injection, schedule: Q01DX009 (ip), vehicle: saline 97 % of control | dose: 200.0 mg/kg/injection, schedule: Q04DX003 (ip), vehicle: saline 98 % of control | dose: 400.0 mg/kg/injection, schedule: Q01DX009 (ip), vehicle: saline 97 % of control | dose: 400.0 mg/kg/injection, schedule: Q04DX003 (ip), vehicle: saline 107 % of control

O=[N+]([O-])c1ccccc1SSSc1ccccc1[N+](=O)[O-]
inactive: [1] 89 % of control | [2] 93 % of control | [3] 101 % of control

CCOC(=O)/C(=C\c1ccccc1)P(=O)(OCC)c1ccccc1 (centres undefined)
inactive: dose: 25.0 mg/kg/injection, schedule: Q01DX009 (ip), vehicle: Klucel (hydroxypropylcellulose) (HPC) 91 % of control | [9] 92 % of control | [10] 96 % of control | [11] 95 % of control | [12] 96 % of control

COc1ccc(N2C(=O)OC3(CCN(CCCC(=O)c4cccs4)CC3)C2=O)cc1
inactive: dose: 100.0 mg/kg/injection, schedule: Q01DX001 (ip), vehicle: Klucel (hydroxypropylcellulose) (HPC) 88 % of control | dose: 200.0 mg/kg/injection, schedule: Q01DX001 (ip), vehicle: Klucel (hydroxypropylcellulose) (HPC) 92 % of control | dose: 400.0 mg/kg/injection, schedule: Q01DX001 (ip), vehicle: Klucel (hydroxypropylcellulose) (HPC) 100 % of control

O=[N+]([O-])c1ccc(OCCBr)c(Cl)c1
inactive: [11] 92 % of control | [12] 97 % of control | [13] 96 % of control

CCCCCOc1nccc(N)n1
inactive: dose: 25.0 mg/kg/injection, schedule: Q01DX001 (ip), vehicle: saline with Tween-80 105 % of control | dose: 50.0 mg/kg/injection, schedule: Q01DX001 (ip), vehicle: saline with Tween-80 92 % of control | dose: 100.0 mg/kg/injection, schedule: Q01DX001 (ip), vehicle: saline with Tween-80 95 % of control

O=c1[nH]cc(COCC(F)(F)C(F)F)c(=O)[nH]1
inactive: dose: 50.0 mg/kg/injection, schedule: Q01DX005 (ip), vehicle: other 101 % of control | dose: 100.0 mg/kg/injection, schedule: Q01DX005 (ip), vehicle: other 104 % of control | dose: 200.0 mg/kg/injection, schedule: Q01DX005 (ip), vehicle: other 95 % of control | dose: 400.0 mg/kg/injection, schedule: Q01DX005 (ip), vehicle: other 95 % of control

Cc1ccc(Nc2nc(N)nc(N)c2Cl)cc1
inactive: dose: 50.0 mg/kg/injection, schedule: Q01DX009 (ip), vehicle: saline with Tween-80 94 % of control | dose: 100.0 mg/kg/injection, schedule: Q01DX009 (ip), vehicle: saline with Tween-80 91 % of control

CC(=O)Nc1cccc(OCc2ccc([N+](=O)[O-])cc2)c1
inactive: [9] 111 % of control | [10] 97 % of control | dose: 200.0 mg/kg/injection, schedule: Q01DX009 (ip), vehicle: Klucel (hydroxypropylcellulose) (HPC) 97 % of control

O=C(Nc1ccc(C2=NCCN2)cc1)Nc1ccccc1NC(=O)Nc1ccc(C2=NCCN2)cc1
inactive: dose: 3.12 mg/kg/injection, schedule: Q01DX Z (ip), vehicle: water 100 % of control | dose: 6.25 mg/kg/injection, schedule: Q01DX Z (ip), vehicle: water 117 % of control | dose: 12.5 mg/kg/injection, schedule: Q01DX Z (ip), vehicle: water 105 % of control

CCCC[N+](C)(C)CCOC(=O)C1C2CC3OC(=O)C1C3C2 (centres undefined)
inactive: [8] 95 % of control

CC(=O)CCCCCCCCCCC1CCC2OC12 (centres undefined)
inactive: [14] 101 % of control | dose: 100.0 mg/kg/injection, schedule: Q01DX009 (sc), vehicle: other 109 % of control | dose: 100.0 mg/kg/injection, schedule: Q04DX003 (ip), vehicle: other 95 % of control | [15] 115 % of control | dose: 200.0 mg/kg/injection, schedule: Q01DX009 (sc), vehicle: other 98 % of control | dose: 200.0 mg/kg/injection, schedule: Q04DX003 (ip), vehicle: other 94 % of control | [16] 106 % of control | dose: 400.0 mg/kg/injection, schedule: Q01DX009 (sc), vehicle: other 97 % of control | dose: 400.0 mg/kg/injection, schedule: Q04DX003 (ip), vehicle: other 102 % of control

COc1cc(NC(=O)Nc2cc(OC)c(OC)c(OC)c2)cc(OC)c1OC
inactive: [11] 96 % of control | [4] 93 % of control | [12] 98 % of control | [13] 91 % of control

O=[N+]([O-])c1ccc(N/N=C(/Cc2ccccc2)c2ccc(Cl)cc2)c([N+](=O)[O-])c1
inactive: [1] 107 % of control | [2] 86 % of control | [3] 98 % of control

CCSC(=O)n1ncc2cc(Cl)ccc21
inactive: [14] 105 % of control | [15] 97 % of control | [16] 108 % of control

CC(c1c[nH]c2ccccc12)N1CCCCC1 (centres undefined)
inactive: [5] 115 % of control | [6] 107 % of control | dose: 25.0 mg/kg/injection, schedule: Q04DX003 (ip), vehicle: acetone 103 % of control | [7] 109 % of control | dose: 50.0 mg/kg/injection, schedule: Q04DX003 (ip), vehicle: acetone 95 % of control | dose: 100.0 mg/kg/injection, schedule: Q01DX001 (ip), vehicle: carboxymethylcellulose (CMC) 96 % of control

NC(c1ccccc1)C1C(c2ccccc2)N1C1CCCCC1 (centres undefined)
inactive: [11] 95 % of control | [12] 86 % of control | [13] 98 % of control

CNC1C(OC2C(OC3C(O)C(O)C(N=C(N)N)C(O)C3N=C(N)N)OC(C)C2(O)C=O)OC(CO)C(O)C1O (centres undefined)
inactive: [1] 108 % of control | [2] 106 % of control | [3] 114 % of control

CCC1COC(Nc2cccc3c2CCCC3)=N1 (centres undefined)
inactive: dose: 50.0 mg/kg/injection, schedule: Q04DX003 (ip), vehicle: saline with Tween-80 92 % of control | [4] 92 % of control | dose: 200.0 mg/kg/injection, schedule: Q04DX003 (ip), vehicle: saline with Tween-80 92 % of control

From PubChem BioAssay AID248 (DTP/NCI, 2004)
